From patent US12492230B2, “Antigenic peptides deriving from secretogranin V and uses thereof for the diagnosis and treatment of type 1 diabetes” (INSERM (Institut National de la Santé et de la Recherche …, priority 2018, dated 2025)
Where no end group is shown, it is not given here.

The substances below were run on circulating CD8+ T cells (assay: Ex vivo combinatorial HLA-A2 multimer (MMr) staining of PBMCs). Conditions: HLA-A2+ healthy donors, screening.
Type: cell-based, human
Procedure: All peptides were synthesized at >90% purity (Synpeptides). HLA-A2 MMrs were produced as described (Leisner et al., 2008) and staining performed in the presence of 50 nM dasatinib (Lissina et al., 2009), as described (Culina et al., 2018). Briefly, cryopreserved PBMCs were magnetically depleted of CD8^− cells (StemCell Technologies), stained with the combinatorial MMr panels (Hadrup et al., 2009) and acquired using a FACSAria III cytometer.
FLSGAVNRL was tested, and the “cognate naïve CD8+ T-cell repertoire (frequency 1-50/10^6 CD8+ T cells, clustered MMr staining, in ≥50% of individuals)” value was “validated”. With “PCSK230-38: HLA-A2-restricted HLA-eluted β-cell peptide from proprotein convertase 2 (FTNHFLVEL)” the “cognate naïve CD8+ T-cell repertoire (frequency 1-50/10^6 CD8+ T cells, clustered MMr staining, in ≥50% of individuals)” value was “validated”. In the case of “KIF1A1347-1355: HLA-A2-restricted HLA-eluted β-cell peptide from kinesin family member 1A (VLDTSVAYV)”, the “cognate naïve CD8+ T-cell repertoire (frequency 1-50/10^6 CD8+ T cells, clustered MMr staining, in ≥50% of individuals)” value is reported as “validated”. For “IAPP15-17/IAPP5-10: peptide splice product from fusion of IAPP15-17 and IAPP5-10, HLA-A2-restricted (VALKLQVFL)”, the “recognition by circulating CD8+ T cells, donors” value was 1 of 6. For “UCN31-9: HLA-A2-restricted HLA-eluted β-cell peptide from urocortin-3 leader sequence (MLMPVHFLL)”, the “cognate naïve CD8+ T-cell repertoire (frequency 1-50/10^6 CD8+ T cells, clustered MMr staining, in ≥50% of individuals)” value was “validated”. “KCNK16129-137: HLA-A2-restricted HLA-eluted β-cell peptide from KCNK16 (ALLGIPLNV)” was tested, and the “cognate naïve CD8+ T-cell repertoire (frequency 1-50/10^6 CD8+ T cells, clustered MMr staining, in ≥50% of individuals)” value was “validated”. “CHGA344-352: HLA-A2-restricted HLA-eluted β-cell peptide from chromogranin A, maps to the WE-14 neuropeptide (KMDQLAKEL)” was tested, and the “cognate naïve CD8+ T-cell repertoire (frequency 1-50/10^6 CD8+ T cells, clustered MMr staining, in ≥50% of individuals)” value was “validated”. YLQGQRLDNV was tested, and the “cognate naïve CD8+ T-cell repertoire (frequency 1-50/10^6 CD8+ T cells, clustered MMr staining, in ≥50% of individuals)” value was “validated”. “ISL1276-284: HLA-A2-restricted HLA-eluted peptide from insulin gene enhancer protein ISL1 (GLQANPVEV)” was tested, and the “cognate naïve CD8+ T-cell repertoire (frequency 1-50/10^6 CD8+ T cells, clustered MMr staining, in ≥50% of individuals)” value was “validated”.

Same assay, conditions: HLA-A2+ recent-onset T1D and healthy subjects
FLSGAVNRL was tested, and the “frequency of circulating MMr+ CD8+ T cells (in words)” value was “particularly high and clustered”. For “UCN31-9: HLA-A2-restricted HLA-eluted β-cell peptide from urocortin-3 leader sequence (MLMPVHFLL)”, the “frequency of circulating MMr+ CD8+ T cells (in words)” value was “particularly high and clustered”.

Same assay, conditions: T1D patients; fraction of CD8+ T cells
For “IAPP15-17/IAPP5-10: peptide splice product from fusion of IAPP15-17 and IAPP5-10, HLA-A2-restricted (VALKLQVFL)”, the “median frequency in peripheral blood” value was 1.6×10^−6. “ISL1276-284: HLA-A2-restricted HLA-eluted peptide from insulin gene enhancer protein ISL1 (GLQANPVEV)” was tested, and the “median frequency in peripheral blood” value was 7.2×10^−6.

What follows are substances tested on pancreas-infiltrating cells of HLA-A2+ T1D patients (assay: In-situ HLA-A2 MMr staining on pancreas sections). Conditions: 2 HLA-A2+ T1D cases, nPOD tissue sections.
Type: cell-based, human
Procedure: In-situ staining was performed as described (Culina et al., 2018). Unfixed, frozen sections were dried for 2 h, loaded with 1 μg of MMrs overnight at 4° C., washed gently with phosphate-buffered saline and fixed in 2% paraformaldehyde for 10 min. After a further wash, endogenous peroxidase activity was blocked with 0.3% H2O2. Sections were then incubated serially with rabbit anti-phycoerythrin, horseradish peroxidase-conjugated swine anti-rabbit and 3,3′-diaminobenzidine tetrahydrochloride substrate (ThermoFisher). After a final wash, sections were counterstained with hematoxylin, dehydrated via sequential passages in 95-100% ethanol and xylene, mounted and analyzed using a Nikon Eclipse Ni microscope with NIS-Elements Analysis D software v4.40.
In the case of “ZnT8186-184: positive control islet peptide (VAANIVLTV; UniProt Q8IWU4 186-194, looked up, fragment) [reference compound]”, the “in-situ MMr staining of pancreas sections” value (“in-situ MMr staining” for short) is reported as “observed”. “IAPP15-17/IAPP5-10: peptide splice product from fusion of IAPP15-17 and IAPP5-10, HLA-A2-restricted (VALKLQVFL)” was tested, and the “in-situ MMr staining” value was “MMr^+ cells could be detected”. For “ISL1276-284: HLA-A2-restricted HLA-eluted peptide from insulin gene enhancer protein ISL1 (GLQANPVEV)”, the “in-situ MMr staining” value was “MMr^+ cells could be detected”.

The substances below were run on circulating CD8+ T cells (assay: Ex vivo HLA-A3 multimer (MMr) staining of PBMCs). Conditions: HLA-A3+ T1D and healthy donors.
Type: cell-based, human
Procedure: HLA-A3 MMrs were produced and used as described (Gonzalez-Duque, Cell Metab 2018). Each peptide-HLA-A3 complex was used at a final concentration of 8-27 nM and conjugated with fluorochrome-labeled streptavidin at a 1:4 ratio. The concentration of each fluorescent MMr was corrected for the variable staining index of each streptavidin, in order to obtain a distinct double-MMr+ population for each fluorochrome pair. Compensations were set using fluorescence-minus-one samples (i.e. omitting one streptavidin at a time).
PBMCs were thawed at 37° C. and immediately diluted in pre-warmed AIM-V medium. Following centrifugation and one additional wash in AIM-V, PBMCs were counted and rested in the presence of 50 nM dasatinib for 30 min at 37° C. to prevent internalization of T-cell receptors before magnetic depletion of CD8^− cells (StemCell Technologies). Staining was performed for 20 min at 20° C. in […] PBS-dasatinib for 10^7 cells with combinatorial double-coded MMr panels, followed, without washing, by CD3-APC-H7 (RRID AB_1645475), CD8-PE-Cy7 (AB_396852), CD45RA-FITC (AB_395879), CCR7-BV421 (AB_2728119) monoclonal antibodies and Live/Dead Aqua (ThermoFisher) staining at 4° C. for 20 min. After one wash, cells were acquired using a FACSAria III cytometer. […] Flow cytometry data were analyzed with FlowJo v10 and Graphpad Prism 7.0 software. Cells were sequentially gated on small lymphocytes, singlets, live cells (Live/Dead Aqua^−), CD3^+CD8^+ T cells and total PE^+, PE-CF594^+, APC^+, BV650^+, BV711^+ and BV786^+MMr^+ T cells. Using Boolean operators, these latter gates allowed to selectively visualize each double-MMr^+ population by including only those events positive for the corresponding fluorochrome pair. For example, SCG3166-174 MMr^+ cells (PE^+PE-CF594^+) were visualized by gating on events that were PE^+PE-CF594^+APC^−BV650^−BV711^−BV786^−. Events negative for all MMr fluorochromes (PE^−PE-CF594^−APC^−BV650^−BV711^−BV786^−) were represented in the same PE/PE-CF-594 dot plot to set the double-MMr^+ gate. CD45RA and CCR7 staining was subsequently visualized by gating on these MMr^+ cells.
In the case of “KIF1A860-868: HLA-A3-restricted islet peptide from KIF1A (LLYPVPLVH)”, the “positive hits for the HLA-A3 restriction” value is reported as “positive hits”. For “UCN346-56: HLA-A3-restricted islet peptide from urocortin-3 (GQWEDASLLSK)”, the “positive hits for the HLA-A3 restriction” value was “positive hits”. For “PTPRN576-580/708-711: spliced peptide derived from the fusion of two non-contiguous IA-2 sequences, HLA-A3 (SVLLTRLAK)”, the “positive hits for the HLA-A3 restriction” value was “identified”. In the case of RLKPSLVGK, the “positive hits for the HLA-A3 restriction” value is reported as “positive hits”. For “SCG3166-174: HLA-A3-restricted islet peptide from secretogranin III (AVFDKIVSK)”, the “positive hits for the HLA-A3 restriction” value was “positive hits”.

Same assay, conditions: second validation round, PBMCs from T1D and healthy donors
With “PNMA250-58: HLA-A3-restricted islet peptide candidate, not validated (RLLGKIFRK)” the “validation as CD8+ T-cell epitopes” value was “single exception”.
